Laboratory results reported in the Kinase Knowledgebase extract (Sharma et al. 2016).

How the values were obtained:
PIK3CA (human) [1] = target: PIK3CA (human) (UniProt P42336); assay: Enzyme Assay
PIK3CB (Human) = PIK3CB (Human) (UniProt P42338); assay: Enzyme Assay
PIK3CD (Human) = PIK3CD (Human) (UniProt O00329); assay: Enzyme Assay
PIK3CG (human) = PIK3CG (human) (UniProt P48736); assay: Enzyme Assay
PIK3CA (human) [2] = target: PIK3CA (human) (UniProt P42336); assay: Cell-Based Assay

Sequence of PIK3CB (Human) (P42338 whole entry, looked up): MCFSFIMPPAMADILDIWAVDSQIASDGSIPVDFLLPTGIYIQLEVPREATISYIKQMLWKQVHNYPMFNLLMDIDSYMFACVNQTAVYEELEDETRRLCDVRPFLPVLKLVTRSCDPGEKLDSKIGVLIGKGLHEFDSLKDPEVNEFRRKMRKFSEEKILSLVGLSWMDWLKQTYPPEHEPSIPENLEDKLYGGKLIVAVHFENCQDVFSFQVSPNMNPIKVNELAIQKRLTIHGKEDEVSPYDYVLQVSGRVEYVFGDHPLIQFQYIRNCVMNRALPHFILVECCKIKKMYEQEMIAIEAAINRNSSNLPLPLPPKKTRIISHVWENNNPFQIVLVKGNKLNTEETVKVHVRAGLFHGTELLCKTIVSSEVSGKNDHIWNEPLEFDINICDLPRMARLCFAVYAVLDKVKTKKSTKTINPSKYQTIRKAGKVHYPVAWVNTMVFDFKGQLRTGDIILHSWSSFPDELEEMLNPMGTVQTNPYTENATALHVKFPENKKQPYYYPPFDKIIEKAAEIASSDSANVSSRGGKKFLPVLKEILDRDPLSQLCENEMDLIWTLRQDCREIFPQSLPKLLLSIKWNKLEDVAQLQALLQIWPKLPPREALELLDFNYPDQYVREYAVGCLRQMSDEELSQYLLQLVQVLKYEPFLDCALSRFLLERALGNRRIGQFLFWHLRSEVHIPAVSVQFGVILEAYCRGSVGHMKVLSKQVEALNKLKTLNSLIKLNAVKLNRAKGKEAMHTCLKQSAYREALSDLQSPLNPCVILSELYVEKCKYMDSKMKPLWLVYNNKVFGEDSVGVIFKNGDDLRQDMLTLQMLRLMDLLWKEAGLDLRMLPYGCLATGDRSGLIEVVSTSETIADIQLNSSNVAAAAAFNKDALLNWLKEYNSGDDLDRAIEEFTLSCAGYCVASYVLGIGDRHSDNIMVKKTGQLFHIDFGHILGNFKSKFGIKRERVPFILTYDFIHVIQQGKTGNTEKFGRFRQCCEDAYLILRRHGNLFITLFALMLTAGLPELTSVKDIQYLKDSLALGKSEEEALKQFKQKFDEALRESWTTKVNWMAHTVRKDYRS
Sequence of PIK3CG (human) (P48736 whole entry, looked up): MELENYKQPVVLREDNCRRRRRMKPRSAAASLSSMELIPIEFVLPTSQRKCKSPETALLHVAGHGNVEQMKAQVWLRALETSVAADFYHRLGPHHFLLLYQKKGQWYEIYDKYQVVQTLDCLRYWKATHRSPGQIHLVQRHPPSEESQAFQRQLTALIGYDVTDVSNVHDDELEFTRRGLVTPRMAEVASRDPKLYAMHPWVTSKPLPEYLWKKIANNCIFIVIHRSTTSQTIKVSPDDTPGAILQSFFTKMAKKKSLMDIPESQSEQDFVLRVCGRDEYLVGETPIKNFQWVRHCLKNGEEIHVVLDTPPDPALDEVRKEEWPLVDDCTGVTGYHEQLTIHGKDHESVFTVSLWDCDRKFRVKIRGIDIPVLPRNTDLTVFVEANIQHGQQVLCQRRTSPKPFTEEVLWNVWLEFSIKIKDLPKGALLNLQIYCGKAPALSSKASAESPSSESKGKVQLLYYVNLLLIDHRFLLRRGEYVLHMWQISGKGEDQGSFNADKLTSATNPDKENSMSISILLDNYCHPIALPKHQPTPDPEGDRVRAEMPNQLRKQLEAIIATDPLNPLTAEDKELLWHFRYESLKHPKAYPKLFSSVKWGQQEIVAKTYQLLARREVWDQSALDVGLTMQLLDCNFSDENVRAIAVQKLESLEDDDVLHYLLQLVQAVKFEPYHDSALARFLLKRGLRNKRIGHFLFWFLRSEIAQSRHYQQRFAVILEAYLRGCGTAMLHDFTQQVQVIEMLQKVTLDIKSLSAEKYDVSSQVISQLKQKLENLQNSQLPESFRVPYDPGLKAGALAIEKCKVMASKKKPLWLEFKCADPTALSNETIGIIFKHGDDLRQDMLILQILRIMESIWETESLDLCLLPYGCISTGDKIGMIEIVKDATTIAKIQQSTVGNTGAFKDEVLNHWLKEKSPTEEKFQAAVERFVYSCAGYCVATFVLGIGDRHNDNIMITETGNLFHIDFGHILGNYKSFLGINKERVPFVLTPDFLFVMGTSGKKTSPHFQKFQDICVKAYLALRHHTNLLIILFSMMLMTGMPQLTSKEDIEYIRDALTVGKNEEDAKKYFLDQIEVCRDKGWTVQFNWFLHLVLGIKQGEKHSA
Sequence of PIK3CD (Human) (O00329 whole entry, looked up): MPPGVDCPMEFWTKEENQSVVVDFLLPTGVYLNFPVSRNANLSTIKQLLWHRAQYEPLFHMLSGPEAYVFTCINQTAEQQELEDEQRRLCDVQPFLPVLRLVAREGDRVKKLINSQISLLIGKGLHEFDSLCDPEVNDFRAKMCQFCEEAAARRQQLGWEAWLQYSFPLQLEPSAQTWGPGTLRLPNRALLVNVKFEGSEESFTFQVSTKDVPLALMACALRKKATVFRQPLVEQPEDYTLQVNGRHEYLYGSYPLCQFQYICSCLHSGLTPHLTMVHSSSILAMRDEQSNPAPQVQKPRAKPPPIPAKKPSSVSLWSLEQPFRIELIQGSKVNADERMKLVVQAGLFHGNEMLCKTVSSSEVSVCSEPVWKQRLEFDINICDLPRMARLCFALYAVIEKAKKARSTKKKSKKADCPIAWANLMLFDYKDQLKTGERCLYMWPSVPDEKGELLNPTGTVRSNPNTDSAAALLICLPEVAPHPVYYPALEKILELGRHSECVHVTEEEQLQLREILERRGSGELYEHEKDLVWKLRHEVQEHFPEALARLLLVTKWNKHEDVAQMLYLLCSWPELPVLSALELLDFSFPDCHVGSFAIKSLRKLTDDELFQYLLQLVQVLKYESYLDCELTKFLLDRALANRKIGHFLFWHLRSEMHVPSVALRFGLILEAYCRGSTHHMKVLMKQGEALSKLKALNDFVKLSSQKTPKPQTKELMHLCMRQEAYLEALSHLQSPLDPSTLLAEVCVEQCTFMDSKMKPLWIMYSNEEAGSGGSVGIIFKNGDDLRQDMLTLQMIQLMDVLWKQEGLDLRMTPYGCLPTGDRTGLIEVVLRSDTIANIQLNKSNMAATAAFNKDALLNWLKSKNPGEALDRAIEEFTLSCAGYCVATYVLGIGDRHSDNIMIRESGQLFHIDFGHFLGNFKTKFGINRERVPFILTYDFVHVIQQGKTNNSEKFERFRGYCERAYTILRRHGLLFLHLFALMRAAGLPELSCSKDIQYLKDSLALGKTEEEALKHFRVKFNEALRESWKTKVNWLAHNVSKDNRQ
Sequence of PIK3CA (human) (P42336 whole entry, looked up): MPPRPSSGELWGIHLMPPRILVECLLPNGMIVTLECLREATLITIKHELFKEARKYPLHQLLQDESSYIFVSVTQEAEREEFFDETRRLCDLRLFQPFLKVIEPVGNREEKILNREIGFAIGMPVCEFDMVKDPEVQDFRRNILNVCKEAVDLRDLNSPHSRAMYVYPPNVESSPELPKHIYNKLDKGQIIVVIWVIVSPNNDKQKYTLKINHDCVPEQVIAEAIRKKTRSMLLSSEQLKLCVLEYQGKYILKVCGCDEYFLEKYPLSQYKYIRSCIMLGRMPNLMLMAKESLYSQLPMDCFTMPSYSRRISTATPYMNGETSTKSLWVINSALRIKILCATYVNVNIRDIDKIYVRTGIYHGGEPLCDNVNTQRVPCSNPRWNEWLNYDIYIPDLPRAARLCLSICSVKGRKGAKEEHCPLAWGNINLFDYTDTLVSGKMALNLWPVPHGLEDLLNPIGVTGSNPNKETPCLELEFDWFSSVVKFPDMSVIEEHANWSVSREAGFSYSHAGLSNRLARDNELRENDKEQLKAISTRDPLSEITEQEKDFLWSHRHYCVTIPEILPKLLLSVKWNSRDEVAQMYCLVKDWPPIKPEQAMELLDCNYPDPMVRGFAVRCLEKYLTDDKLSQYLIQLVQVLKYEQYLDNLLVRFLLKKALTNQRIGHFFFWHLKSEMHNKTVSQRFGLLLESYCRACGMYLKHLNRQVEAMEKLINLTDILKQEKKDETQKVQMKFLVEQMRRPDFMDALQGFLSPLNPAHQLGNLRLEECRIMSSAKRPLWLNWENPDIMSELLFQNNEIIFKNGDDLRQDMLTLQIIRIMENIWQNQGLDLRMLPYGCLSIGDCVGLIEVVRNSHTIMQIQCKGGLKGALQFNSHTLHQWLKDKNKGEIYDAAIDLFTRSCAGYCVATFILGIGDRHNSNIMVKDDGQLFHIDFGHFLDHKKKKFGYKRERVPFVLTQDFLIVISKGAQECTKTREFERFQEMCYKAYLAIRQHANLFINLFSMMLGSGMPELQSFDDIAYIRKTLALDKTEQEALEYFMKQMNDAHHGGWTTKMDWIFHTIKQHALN

| SMILES | IC50 (PIK3CA (human) [1]) | IC50 (PIK3CD (Human)) | IC50 (PIK3CG (human)) | IC50 (PIK3CA (human) [2]; t47d) | other results |
| --- | --- | --- | --- | --- | --- |
| Nc1nc2cc(-c3ccc4ncc(S(=O)(=O)N5CCOCC5)n4c3)ccc2o1 | > 10 µM | > 10 µM | > 10 µM |  | IC50 (PIK3CB (Human)): > 10 µM |
| CN1CCN(S(=O)(=O)c2cnc3ccc(-c4ccc5oc(N)nc5c4)cn23)CC1 | > 10 µM | > 10 µM | > 10 µM |  | IC50 (PIK3CB (Human)): > 10 µM |
| Nc1nc2ccc(-c3ccc4nccc(-c5ccncc5)c4c3)cc2s1 | < 0.1 µM | 0.1 to 1 µM | 0.1 to 1 µM |  | IC50 (PIK3CB (Human)): > 10 µM |
| COc1ncc(-c2ccc3ncn(C4CCN(C)CC4)c(=O)c3c2)cc1NS(C)(=O)=O |  | < 0.1 µM |  |  |  |
| CC1CN(C(=O)c2cnc3ccc(-c4ccc5oc(N)nc5c4)cn23)CCN1 (stereo not drawn) | 0.1 to 1 µM | > 10 µM | > 10 µM |  | IC50 (PIK3CB (Human)): 0.1 to 1 µM |
| Nc1nc2cc(-c3ccc4ncc(C(=O)N5CCC(N6CCC(F)(F)C6)C5)n4c3)ccc2o1 (stereo not drawn) | 0.1 to 1 µM |  |  |  | IC50 (PIK3CB (Human)): > 10 µM |
| CN1CCN(C(=O)c2cnn3ccc(-c4ccc5oc(N)nc5c4)cc23)CC1 | 0.1 to 1 µM | > 10 µM |  |  |  |
| Nc1nc2cc(-c3ccc4nccc(-c5ccncc5)c4c3)ccc2o1 | < 0.1 µM | < 0.1 µM | < 0.1 µM | 0.1 to 1 µM | IC50 (PIK3CA (human) [2]; pc3): 0.1 to 1 µM |
| CC1(C)CN(C2CN(C(=O)c3cnc4ccc(-c5ccc6oc(N)nc6c5)cn34)C2)CCN1 | < 0.1 µM | < 0.1 µM | 0.1 to 1 µM |  | IC50 (PIK3CA (human) [2]; pc3): 0.1 to 1 µM |
| NC1=NC2C=C(c3ccc4oc(N)nc4c3)C=CC2O1 (stereo not drawn) | 0.1 to 1 µM |  | < 0.1 µM |  |  |
| Nc1nc2cc(-c3ccc4ncc(-c5cn[nH]c5)n4n3)ccc2o1 | < 0.1 µM | 0.1 to 1 µM | < 0.1 µM |  | IC50 (PIK3CB (Human)): < 0.1 µM |
| C[C@@H]1CN(C(=O)C2CN(c3cnc4ccc(-c5ccc6oc(N)nc6c5)cc4n3)C2)CCN1 |  |  |  | 0.1 to 1 µM |  |
| Nc1nc2cc(-c3ccc4ncc(C(=O)N5CC(F)(F)C5)n4c3)ccc2o1 |  |  |  |  | IC50 (PIK3CA (human) [2]; pc3): 0.1 to 1 µM |
| CN1CCN(CCNc2cnc3ccc(-c4ccc5oc(N)nc5c4)cc3n2)CC1 |  |  |  | 0.1 to 1 µM |  |
| CCN1CCN(C2CN(c3cnc4ccc(-c5ccc6oc(N)nc6c5)nc4c3)C2)CC1 |  |  |  |  | IC50 (PIK3CA (human) [2]; mda-mb-361): 0.1 to 1 µM |
| Nc1nc2cc(-c3ccc4nnc(C(=O)N5CCOCC5)n4c3)ccc2o1 |  |  |  | > 10 µM |  |
| Nc1nc2cc(-c3ccc4ncn(-c5ccncc5)c4c3)ccc2o1 | < 0.1 µM |  | 0.1 to 1 µM |  | IC50 (PIK3CA (human) [2]; pc3): > 10 µM |
| Nc1nc2cc(-c3ccc4ncc(N5CC(N6CCOCC6)C5)nc4c3)ccc2o1 |  |  |  | 0.1 to 1 µM |  |

| SMILES | IC50 (PIK3CA (human) [1]) | IC50 (PIK3CD (Human)) | IC50 (PIK3CG (human)) | IC50 (PIK3CA (human) [2]; t47d) | other results |
| --- | --- | --- | --- | --- | --- |
| CN1CCN(c2cnc3ccc(-c4ccc5oc(N)nc5c4)cc3n2)CC1=O |  |  |  | 0.1 to 1 µM |  |
| CN1CCN(C2CN(c3cnc4ccc(-c5ccc6oc(N)nc6c5)cc4n3)C2)CC1 |  |  |  | 0.1 to 1 µM |  |
| CNC(=O)N1CCN(c2cnc3ccc(-c4ccc5oc(N)nc5c4)cc3n2)CC1 |  |  |  | 0.1 to 1 µM |  |
| Nc1nc2cc(-c3ccc4ncc(C(=O)N5C6CCC5COC6)n4c3)ccc2o1 | 0.1 to 1 µM |  | < 0.1 µM |  | IC50 (PIK3CA (human) [2]; pc3): 0.1 to 1 µM |
| COC(=O)N1CCC(N2N=CC3C(N4CCOCC4)=NC(c4ccc5oc(N)nc5c4)=NC32)CC1 (stereo not drawn) | 0.1 to 1 µM | > 10 µM | > 10 µM |  |  |
| Nc1nc2cc(-c3ccc4ncc(-c5cnn(CCO)c5)nc4c3)ccc2o1 |  |  |  | 0.1 to 1 µM |  |
| CC(=O)N1CCC(Nc2ncnc3ccc(-c4ccc5oc(N)nc5c4)nc23)CC1 |  |  |  | 0.1 to 1 µM |  |
| Nc1nc2cc(-c3ccc4ncc(NC5CCOCC5)nc4c3)ccc2o1 |  |  |  | 0.1 to 1 µM |  |
| CS(=O)(=O)CCN1CCN(c2cnc3ccc(-c4ccc5oc(N)nc5c4)cc3n2)CC1 |  |  |  | 0.1 to 1 µM |  |
| Nc1nc2cc(-c3ccc4ncc(N5CC(C(=O)N6CCOCC6)C5)nc4c3)ccc2o1 |  |  |  | 0.1 to 1 µM |  |
| CC1CN(c2cnc3ccc(-c4ccc5oc(N)nc5c4)cc3n2)CCN1 (stereo not drawn) |  |  |  | > 10 µM |  |
| CN1CC(C(=O)N2CCC(Nc3ncnc4ccc(-c5ccc6oc(N)nc6c5)cc34)CC2)C1 |  |  |  | > 10 µM |  |
| C[C@H]1CN(C2CN(C(=O)c3cnc4ccc(-c5ccc6oc(N)nc6c5)cn34)C2)CCN1C |  |  |  |  | IC50 (PIK3CA (human) [2]; pc3): 0.1 to 1 µM |
| CN1CC(C(=O)N2CCN(c3cnc4ccc(-c5ccc6oc(N)nc6c5)cc4n3)CC2)C1 |  |  |  | 0.1 to 1 µM |  |
| Nc1nc2cc(-c3ccc4ncc(C(=O)N5CC[C@H](n6cccn6)C5)n4c3)ccc2o1 |  |  |  |  | IC50 (PIK3CA (human) [2]; pc3): 0.1 to 1 µM |
| O=C(c1cnc2ccc(-c3cnc(Cl)c(NS(=O)(=O)c4cccc(F)c4)c3)cn12)N1CCOCC1 |  |  |  |  | IC50 (PIK3CA (human) [2]; pc3): 0.1 to 1 µM |
| Nc1nc2cc(-c3ccc4ncc(N[C@H]5CC[C@H](O)CC5)nc4c3)ccc2o1 | < 0.1 µM | < 0.1 µM | < 0.1 µM |  |  |
